Here are results for 15 molecules from article doi:10.1101/2024.10.13.618094 (bioRxiv, 2024).

Entries after “also recorded” stand apart in the source; their conditions may differ. *1 amine or outer side, *2 acyl side, *3 side chain or, on linkers, in order; H or OH if unused. Where a SMILES comes first, the peptide text is derived from it. [ ]: non-standard residue; d: D form. The star is where a group is joined. Pheol(OBn) = c1ccc(COC[C@H](Cc2ccccc2)N*)cc1; Dnp = O=[N+]([O-])c1ccc(*)c([N+](=O)[O-])c1; NH(4-phenylbutyl) = c1ccc(CCCCN*)cc1; Mca = COc1ccc2c(CC(=O)*)cc(=O)oc2c1; X1 = C[C@H](N[*:1])C(=O)C(=O)[*:2]

Series [1] has as its system purified wild-type RHBDL4. Kind of series: TAMRA-FP active-site probe competition on purified RHBDL4. The series is classed as binding, human. Conditions: purified RHBDL4, SDS-PAGE, Cy3 fluorescence; compared with inactive RHBDL4-S144A control.
Excerpt: Inhibition of recombinant purified RHBDL4 proteolytic activity by N-substituted peptidyl α-ketoamides. (A) Proteolytic rates of the fluorescent substrate IQ6 by RHBDL4 in the presence of increasing concentrations of the general protease inhibitors, Dicyclocoumarin (DCI), tosyl-phenylalanine-chloromethyl ketone (TPCK) and 4-(2-aminoethyl) benzenesulfonyl fluoride (AEBSF). […] (D) Representative inhibition curve derived from measuring rates of RHBDL4 proteolysis of the fluorescent substrate IQ6 with increasing concentrations of compound 1a. (E) Same as (D), except inhibition curve was derived from using increasing concentrations of compound 1b. […] Reactions were quenched with 1×Laemmli buffer and loaded on 12% SDS-PAGE gel. Post-transfer membranes were visualized using a fluorescence Cy3 filter and by western blotting using an α-RHBDL4 antibody. For (A), (D), and (E), all inhibitors were pre-incubated with RHBDL4 for 1hr and allowed to react with the IQ6 substrate for 2 h. Assays were performed in triplicate, and data points represent the average ± standard deviation.
In vitro inhibition of RHBDL4 activity with TMED7-derived peptidyl α-ketoamides. […] (B) Representative inhibition curve derived from measuring rates of RHBDL4 proteolysis of the fluorescent substrate IQ6 with increasing concentrations of compound 3. (C) Same as (B), except inhibition curve was derived from using increasing concentrations of compound 4. […] Reactions were quenched with 1×Laemmli buffer and loaded on 12% SDS-PAGE gel. Post-transfer membranes were visualized using a fluorescence Cy3 filter and by western blotting using an α-RHBDL4 antibody. […] For (B) and (C), all inhibitors were pre-incubated with RHBDL4 for 1hr and allowed to react with the IQ6 substrate for 2 h. All assays were performed in triplicate, and data points represent the average ± standard deviation.
The subject of series [2] is RHBDL4-GFP in ER-enriched microsomes from HEK293T cells. As to the kind of experiment: TAMRA-FP competition label assay in ER-enriched microsomes. Conditions: 100 μM compound, preincubated 1 h at 37°C; 500 nM TAMRA-FP for 2 h at 37°C; immunoprecipitation, Cy3 fluorescence. The series is classed as binding, human. As for the experimental part:
We aimed to investigate our RHBDL4 inhibitors in a more physiological context. […] To achieve this, we prepared ER-enriched microsomes from HEK293T cells transfected with RHBDL4-GFP, then pre-incubated microsomes with 100 μM of each compound, before TAMRA-FP was added to the microsomal fractions. RHBDL4-GFP was immunoprecipitated and visualized for TAMRA-FP fluorescence signal and western blotting. […] We surmise that the peptidyl α-ketoamides may have low membrane penetrability, making them weak inhibitors in microsome and cell-based assays. Further refinement is needed to design peptidyl α-ketoamides that effectively penetrate lipids and inhibit RHBDL4 activity in its native context.
Figure 6. RHBDL4 inhibition studies in ER-enriched microsomes ER-enriched microsomes were preincubated with 100 μM of compounds or DMSO vehicle control followed by addition of 500 nM of TAMRA-FP serine hydrolase probe. […] TAMRA-FP labeling was analyzed via Cy3 filter followed by western blotting using α-GFP antibody.
ER-enriched microsomes were obtained by hypotonic swelling and centrifugation from Hek293T cells 24 h after transfection. […] TAMRA-FP-labelling was analyzed in the wet gel with a green light source (535 nm) and a Cy3 filter by detecting fluorescence emission using ImageQuant 800 Fluor CCD imager (Cytiva) followed by western blotting using a α-GFP antibody (Roche).

In the next series the target is T1, recombinant human RHBDL4 (Homo sapiens, UniProt Q8TEB9).
T1 construct: The entire RHBDL4 and RHBDL4-S144A cDNAs were subcloned into the pcDNA3.1 vector; 6xHis (C, cleaved yes); made in house; host or cells: Freestyle 293-F cells (transient transfection, pcDNA3.1-HisA)
T1 sequence (Q8TEB9 1-315): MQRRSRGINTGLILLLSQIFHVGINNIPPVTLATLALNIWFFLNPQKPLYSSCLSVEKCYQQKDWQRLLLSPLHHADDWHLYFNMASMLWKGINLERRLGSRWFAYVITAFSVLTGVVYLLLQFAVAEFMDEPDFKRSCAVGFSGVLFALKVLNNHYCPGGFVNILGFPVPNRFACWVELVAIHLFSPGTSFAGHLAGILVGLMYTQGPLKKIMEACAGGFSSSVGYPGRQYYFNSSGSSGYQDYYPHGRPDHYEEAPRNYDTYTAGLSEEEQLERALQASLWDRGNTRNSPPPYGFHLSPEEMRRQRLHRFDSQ
Kind of series: FRET-based cleavage assay with fluorogenic substrates (Michaelis–Menten kinetics). It counts as biochemical. The settings on record: pH 8, 37°C, 0.1% DDM, Michaelis–Menten fit, triplicate, average ± SD. As for the experimental part:
We employed a FRET-based assay to determine the activity of RHBDL4. The RHBDL4 proteolytic activity was tested against a suite of fluorescent, internally quenched (IQ) substrates that have been previously used to test the activity of rhomboid protease PARL (Fig. S2A)([Lysyk et al. 2021]). These substrates consist of 7–10-mer peptide sequences flanked by the fluorescent donor group 7-methoxycourmarin (mc) on the N terminus and quencher acceptor group dinitrophenol (dnp) on the C terminus (Fig. 2A) ([Arutyunova et al. 2018]). In general, the donor and acceptor are in proximity within the fluorogenic peptides and show low fluorescence due to internal quenching. Hydrolysis of the peptide bond between the donor and the acceptor leads to physical separation of the FRET pairs and increase in fluorescence, which would be proportional to RHBDL4 protease activity (Fig. 2A).
The reaction setup in our FRET assay enabled the direct determination of Michaelis–Menten kinetic parameters Km and kcat for the cleavage of IQ6, IQ41, and IQ46 by RHBDL4. Our fluorescence reading data were converted to μM/h using the standard calibration curve for all three IQ substrates, and the correction factor for the inner filter effect was applied. We confirmed that purified RHBDL4 followed Michaelis–Menten kinetics with KmIQ6=10.73±2μM , KmIQ41=5.63±2μM , and KmIQ46=7.19±1μM and kcatIQ6=7.33±0.6h^−1 , kcatIQ41=2.41±0.6h^−1 , and kcatIQ46=3.62±0.08h^−1 (Fig. 2B and S2B).
The enzymatic assay was performed as previously described (Arutyunova et al., 2014, [Arutyunova et al., 2018]). […] The FRET-based cleavage assay was conducted in a fluorescence multi-well plate reader (SynergyMx, BioTek, VT, USA). Upon excitation at 320 nm, the emission intensity at 400 nm was recorded for 2 h at minimal intervals under shaking conditions and plotted using the GraphPad PRISM software. The initial velocities were defined as the slopes of the curve of the generated product as a function of time. The plots of the generated product against the corresponding substrate concentration were fitted with the Michaelis–Menten equation. Catalytic parameters were extrapolated using GraphPad PRISM. […] The samples were desalted using C18 tips (Rainin, Columbus, OH, USA), eluted in 80% acetonitrile, and dried down in a vacuum centrifuge prior to mass spectrometry analysis.
All the calculations for Km, Vmax, and Kcat for RHBDL4 and its mutants were performed using GraphPad PRISM.

The test system of series [3] is RHBDL4. As to the kind of experiment: 1.5 μM of wild-type RHBDL4 in activity buffer containing 20 mM citrate phosphate pH 8.0, 150 mM NaCl, 20% (v/v) glycerol, and 0.1% (w/v) DDM. Conditions: human, 37°C, up to 2 h.
The subject of series [4] is RHBDL4. As to the kind of experiment: 1.5 μM of wild-type RHBDL4 (purified recombinant). The settings on record: human, room temperature, up to 4 h.
Series [5] concerns the target T2, rhomboid protease RHBDL4, wild type (recombinant, purified) (human) (UniProt Q8TEB9).
T2 sequence: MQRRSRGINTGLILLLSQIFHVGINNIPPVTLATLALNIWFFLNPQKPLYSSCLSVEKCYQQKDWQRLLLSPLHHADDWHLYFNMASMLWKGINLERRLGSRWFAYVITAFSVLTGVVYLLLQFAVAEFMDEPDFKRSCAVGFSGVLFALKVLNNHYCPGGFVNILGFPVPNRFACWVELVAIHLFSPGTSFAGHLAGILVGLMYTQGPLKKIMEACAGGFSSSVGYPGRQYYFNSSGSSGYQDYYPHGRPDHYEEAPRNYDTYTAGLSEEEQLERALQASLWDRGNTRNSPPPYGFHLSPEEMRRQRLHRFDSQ

For series [6], the target named is T3, rhomboid protease RHBDL4, wild type (recombinant, purified) (human, UniProt Q8TEB9 1-315).
T3 sequence (looked up): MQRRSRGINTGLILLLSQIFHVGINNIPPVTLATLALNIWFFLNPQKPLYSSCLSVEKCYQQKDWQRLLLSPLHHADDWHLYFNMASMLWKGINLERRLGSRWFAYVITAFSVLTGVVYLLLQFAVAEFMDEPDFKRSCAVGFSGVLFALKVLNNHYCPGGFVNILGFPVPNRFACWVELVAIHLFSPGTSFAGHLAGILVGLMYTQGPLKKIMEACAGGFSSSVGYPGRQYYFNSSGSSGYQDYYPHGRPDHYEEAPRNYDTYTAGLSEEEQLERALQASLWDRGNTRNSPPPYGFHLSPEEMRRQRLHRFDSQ
Kind of series: cell-based or functional assay.

Regarding `CC(=O)N[C@H](C(=O)N[C@@H](CCCNC(=N)N)C(=O)NC(Cc1c[nH]cn1)C(=O)N[C@@H](C)C(=O)C(=O)N[C@H](COCc1ccccc1)Cc1ccccc1)C(C)C` (some centres unmarked) [Compound 1a], in series [1], the “Competition with TAMRA-FP probe for the RHBDL4 catalytic site (fluorescent signal)” value (“Competition with TAMRA-FP probe” for short) is “significant reduction of fluorescent signal”. For `CSCC[C@H](NC(=O)[C@H](CCC(N)=O)NC(C)=O)C(=O)N[C@@H](CCC(=O)O)C(=O)N[C@@H](CO)C(=O)N[C@@H](C)C(=O)C(=O)NCCCCc1ccccc1` [Compound 3] (Ac-QMES[X1]-{NH(4-phenylbutyl)}), the “Competition with TAMRA-FP probe” value in series [1] is recorded as “reduction in overall fluorescent signal”. Also, in series [2], the “Effect on TAMRA-FP labeling of RHBDL4-GFP in microsomes” value is on record as “reduced”.

Regarding `CSCC[C@H](NC(=O)[C@H](CCC(N)=O)NC(C)=O)C(=O)N[C@@H](CCC(=O)O)C(=O)N[C@@H](CO)C(=O)N[C@@H](C)C(=O)C(=O)N[C@H](COCc1ccccc1)Cc1ccccc1` [Compound 4] (Ac-QMES[X1]-{Pheol(OBn)}), the “Competition with TAMRA-FP probe” value in series [1] is recorded as “reduction in overall fluorescent signal”. The “Effect on TAMRA-FP labeling of RHBDL4-GFP in microsomes” value in series [2] was “reduced”.

One may read the Km as the concentration of substrate that gives half-maximal velocity. For “Ac-QMESA-4mc [KSp207, TMED7-derived fluorescent substrate Ac-QMESA-4mc]”, the Km at recombinant human RHBDL4 was found to be 3.09 ± 1 µM.

Take “Mca-Arg-Pro-Pro-Gly-Phe-Ser-Ala-Phe-Lys (DNP)-OH (Mca-RPPGFSAFK(Dnp)-OH; SMILES COc1ccc2c(CC(=O)N[C@@H](CCCNC(=N)N)C(=O)N3CCC[C@H]3C(=O)N3CCC[C@H]3C(=O)NCC(=O)N[C@@H](Cc3ccccc3)C(=O)N[C@@H](CO)C(=O)N[C@@H](C)C(=O)N[C@@H](Cc3ccccc3)C(=O)N[C@@H](CCCCNc3ccc([N+](=O)[O-])cc3[N+](=O)[O-])C(=O)O)cc(=O)oc2c1) [IQ6, fluorescent internally quenched substrate mca-…(dnp)]”: the Km in the series with recombinant human RHBDL4 is 10.7 ± 2 µM. mca-AVFLSAVAG(dnp): the not cleaved entry in the series on RHBDL4 [3] was “did not observe any RHBDL4-catalyzed activity”.

Turning to “mca-FLVRGK(dnp) [IQ46, fluorescent internally quenched substrate mca-FLVRGK(dnp)]”, the Km at recombinant human RHBDL4 stood at 7.19 ± 1 µM. Consider “mca-FVTKGK(dnp) [IQ41, fluorescent internally quenched substrate mca-FVTKGK(dnp)]”, for which the Km at recombinant human RHBDL4 was found to be 5.63 ± 2 µM. For mca-RPKPYAvWMK(dnp), the not cleaved entry in the series on RHBDL4 [3] is “did not observe any RHBDL4-catalyzed activity”. Regarding mca-RPPGFSAFK(dnp), the cleaved bond entry in the series on RHBDL4 [4] is “Ala-Phe, 4 h; also recorded: Ser-Ala, 4 h”. For the molecule “peptidyl α-ketoamide compound 1a (Ac-VRHA-CONH-CH(Bn)-CH2OBn) (peptide)”, the IC50 of inhibition of RHBDL4 proteolysis of the fluorescent substrate IQ6 (in vitro FRET-based cleavage assay; 1 h pre-incubation, 2 h reaction) in series [5] was found to be 2310 nM.

As to “peptidyl α-ketoamide compound 1b (Ac-VRHA-CONH-CH(Bn)-CH2OBn) (peptide)”, the IC50 of inhibition of RHBDL4 proteolysis of the fluorescent substrate IQ6 (in vitro FRET-based cleavage assay; 1 h pre-incubation, 2 h reaction) in series [5] came to 6100 nM.

B1: peptidyl α-ketoamide compound 2 (Ac-PGFSA-CONH-(CH2)4-Ph) (peptide)
peptide: Ac-PGFSA-{α‑ketoamide ‑CONH‑(CH2)4‑Ph}
As to B1, the IC50 of inhibition of RHBDL4 activity (in vitro FRET-based cleavage assay) in series [5] amounted to 3400 nM.

B2: peptidyl α-ketoamide compound 3 (Ac-QMESA-CONH-(CH2)4-Ph) (peptide)
peptide: Ac-QMESA-{CONH‑(CH2)4‑Ph}
modifications: also: C-terminal α-ketoamide
As for B2, in series [6], the “IC50 of inhibition of RHBDL4 proteolysis of the fluorescent substrate IQ6 (in vitro FRET-based cleavage assay; 1 h pre-incubation, 2 h reaction)” value is 54 nM.

B3: peptidyl α-ketoamide compound 4 (Ac-QMESA-CONH-CH(Bn)-CH2OBn) (peptide)
peptide: Ac-QMESA-{CONH‑CH(Bn)‑CH2OBn}
modifications: also: C-terminal α-ketoamide
On to B3, for which the “IC50 of inhibition of RHBDL4 proteolysis of the fluorescent substrate IQ6 (in vitro FRET-based cleavage assay; 1 h pre-incubation, 2 h reaction)” value in series [6] turned out to be 85 nM.
